Assay results published in patent US6743423B1, “Use of adeno-associated viruses for decreasing the radiotherapy-induced or chemotherapy- induced resistance in cancer patients” (Deutsches Krebsforschungszentrum Stiftung des Offentlichen …, priority 1998, dated 2004).

Assays:
Format in all cases: cell-based, human
[1] = test system: NCI-H146; test: MTT proliferation assay, SCLC cell line NCI-H146 (chemotherapeutic agents with or without AAV-2 infection); details: for Sensitization factor (A/Ao)* 10^4 Ip.AAV/Cell: AAV-2 infection 10^4 per cell vs mock infection
[2] = test system: NCI-H209; test: MTT proliferation assay, SCLC cell line NCI-H209 (chemotherapeutic agents with or without AAV-2 infection); details: for Sensitization factor (A/Ao)* 10^4 Ip.AAV/Cell: AAV-2 infection 10^4 per cell vs mock infection
Experimental: (§1) Small cell lung carcinoma cell lines (NCI-H69, NCI-H164, NCI-H209, and NCI-H446) (Cancer Res., 1980, 40, 3502-3507; Cancer Res., 1985, 45, 2913-2923) were cultured in RPMI-1640 medium (Eurobio, Raunheim, Germany). HeLa cells were cultured in DMEN (Eurobio, Raunheim, Germany). All growth media were supplemented with glutamine (Eurobio, 1%), antibiotics (penicillin and streptomycin) and 10% heat-inactivated fetal calf serum (PAA; Liz, Austria). The cultures were incubated at 37° C. in a damp atmosphere with 5% CO2 and tested for mycoplasma contaminations at regular intervals.
(§2) The adeno-associated virus type 2 (AAV-2) was replicated in HeLa cells using, adenovirus type 2 (Ad-2) as a helper. AAV was purified in a cesium-chloride gradient and titrated as described in J. Gen. Virol., 1994, 74, 2655-2662. The adenovirus type 2 inocula were clarified supernatants of Ad-2-infected HeLa cells.
(§3) The SCLC cells were suspended in PBS and incubated with purified AAV-2 in the indicated multiplicities of infection (MOI). […]
(§4) The proliferation of the SLCL cells after the infection with AAV-2 and/or treatment with chemotherapeutic agents was determined by the modified MTT test (J. Immunol. Methods, 1983, 56, 55-63). […] The precipitated proteins were pelleted by centrifugation (1000 rpm, 15 min), and 200 ul samples of the supernatant were measured to determine the optical density at 540 nm (OD540), OD690 being used as a reference and a Titertek Multiskan plus MKII densitometer being employed (Lab Systems, Finland).
(§5) The relative proliferation (A/Ao) was defined as the ratio of the absorption (A) measured in the supernatant of AAV-2-infected and/or pharmacon-treated cells, compared with the absorption measured for the supernatant of the mock-infected cells and untreated control cells (Ao). […]
(§6) The AAV-2-infected cells (MOI values as indicated) or mock-infected cells were placed in plates having 24 wells and treated with cisplatin. After six or eight days, the relative proliferation was determined. […]

[3] = test system: NCI-H446; test: MTT proliferation assay, SCLC cell line NCI-H446 (chemotherapeutic agents with or without AAV-2 infection); details: for Sensitization factor (A/Ao)* 10^4 Ip.AAV/Cell: AAV-2 infection 10^4 per cell vs mock infection
Experimental: as §1, §2, §3, §4, §5, §6

[4] = test system: NCI-H69; test: MTT proliferation assay, SCLC cell line NCI-H69 (chemotherapeutic agents with or without AAV-2 infection); details: AAV-2 infection 10^4 per cell vs mock infection
Experimental: as §1
The adeno-associated virus type 2 (AAV-2) was replicated in HeLa cells using, adenovirus type 2 (Ad-2) as a helper. […]
The proliferation of the SLCL cells after the infection with AAV-2 and/or treatment with chemotherapeutic agents was determined by the modified MTT test (J. Immunol. Methods, 1983, 56, 55-63). […] The precipitated proteins were pelleted by centrifugation (1000 rpm, 15 min), and 200 ul samples of the supernatant were measured to determine the optical density at 540 nm (OD540), OD690 being used as a reference and a Titertek Multiskan plus MKII densitometer being employed (Lab Systems, Finland). […]
as §6

[5] = cells treated only with cisplatin at IC50

N.N.[Cl][Pt][Cl] [Cisplatin, cisplatin]
Sensitization factor (A/Ao)* 10^4 Ip.AAV/Cell [1]: 1.37
Sensitization factor (A/Ao)* 10^4 Ip.AAV/Cell [2]: 2.33
Relative proliferation (A/Ao) [2, 5]: 0.5
Sensitization factor (A/Ao)* 10^4 Ip.AAV/Cell [3]: 2.50
Relative proliferation (A/Ao) [3, 5]: 0.59
Sensitization factor (A/Ao)* 10^4 Ip.AAV/Cell [4]: 1.43

COc1cc([C@@H]2c3cc4c(cc3[C@@H](O[C@@H]3O[C@@H]5CO[C@@H](C)O[C@H]5[C@H](O)[C@H]3O)[C@H]3COC(=O)[C@H]23)OCO4)cc(OC)c1O [Etoposide, etoposide]
Resistance/susceptibility of the cell line to the agent [1]: highly susceptible
Sensitization factor (A/Ao)* 10^4 Ip.AAV/Cell [1]: 1.38
Sensitization factor (A/Ao)* 10^4 Ip.AAV/Cell [2]: 2.12
Sensitization factor (A/Ao)* 10^4 Ip.AAV/Cell [3]: 3.00
Sensitization factor (A/Ao)* 10^4 Ip.AAV/Cell [4]: 1.30
